In ChEMBL document CHEMBL2176906, “Diterpenoids isolated from Sideritis species protect astrocytes against oxidative stress via Nrf2” (J Nat Prod, 2012):
Activity calls are given as the source filed them. The rule behind the calls is not given here.

Test system: U373 MG
Assay: Inhibition of AAPH-induced oxidative stress in human U373MG cells assessed as peroxy radical scavenging activity at 8 uM by ORAC assay
Type: functional, cell-based
Details: U-373MG ATCC

Compound: Cc1c(C)c2c(c(C)c1O)CCC(C)(C(=O)O)O2 (stereo unspecified)
- Activity: Active
